The values that follow come from patent publication US5658906A, “Cysteine protease and serine protease inhibitors” (Cephalon, Inc., priority 1996, dated 1997).

Molecules are shown by their SMILES.

For assay [1], the target named is T1, Cathepsin L (Homo sapiens, UniProt P07711).
T1 construct: purchased Calbiochem 219402
The assay is described as follows: Inhibition and rate of inactivation of cathepsin L (Cbz-Phe-Arg-AMC hydrolysis). The format is biochemical. As to conditions: pH 6.0, 0.006 mM substrate, read-out: k2 (second order rate constant of inactivation), B = Cathepsin L. As to the method: Additionally, the order of reagents added to the plate was altered because both enzymes are constitutively active. Following inhibitor addition to the plates appropriate 2× concentrated stock dilutions of the enzyme preparations were made in assay buffer and 100 ul added to each well. The assay was initiated by addition of 100 ul of 2× concentrated stock dilution of substrate in assay buffer. Substrate hydrolysis was monitored using a Fluroskan II (ex=390 nm; em=460 nm).
Inhibition of enzyme activity was calculated as the percent decrease in the rate of substrate hydrolysis in the presence of inhibitor (.upsilon.i) relative to the rate in its absence (.upsilon.o). Comparison between .upsilon.o and .upsilon.i was made within the linear range for substrate hydrolysis. For screening, compounds were tested at 10 μM. Compounds having ≥50% inhibition at 10 μM were considered active. Apparent second order rate constants were determined from analysis of reaction progress curves under pseudo-first order conditions. Each determination represents the mean of three or more independent single cuvette analyses continually monitored via a Perkin-Elmer LS50B spectrofluorimeter. The rate of inhibition of hydrolysis was obtained by fitting the curve to the exponential equation (1):
y=Ae^-k.spsb.obs·t +B (1)
where y (Pt) is the product formed at time t. A and B are constants. A, the amplitude of the reaction, is given by [Po -P.varies. ] and B (=P.varies.) is the maximal product formed when the reaction is […]. This was corrected for the presence of equation (2): […]

Assay [2] deals with T2, α-chymotrypsin (Bos taurus, UniProt P00766).
T2 construct: purchased Sigma Chem. Co. C-3142
Kind of assay: Inhibition of the serine protease α-chymotrypsin (Succ-Ala-Ala-Pro-Phe-AMC hydrolysis). The format is biochemical. Particulars: pH 7.5, 0.03 mM substrate. The method, then: Additionally,because α-chymotrypsin is not a calcium sensitive enzyme and is constituitively active, following addition of inhibitor stocks to the 96 well plates, 100 ul of a 2 fold concentrated stock of enzyme in dilution buffer was first added and the reaction started by addition of 100 ul of a 2 fold concentrated stock of substrate in assay buffer. Substrate hydrolysis was monitored every 5 minutes up to 30 minutes using a Fluoroskan II ([…]).

T1 sequence (P07711 114-333): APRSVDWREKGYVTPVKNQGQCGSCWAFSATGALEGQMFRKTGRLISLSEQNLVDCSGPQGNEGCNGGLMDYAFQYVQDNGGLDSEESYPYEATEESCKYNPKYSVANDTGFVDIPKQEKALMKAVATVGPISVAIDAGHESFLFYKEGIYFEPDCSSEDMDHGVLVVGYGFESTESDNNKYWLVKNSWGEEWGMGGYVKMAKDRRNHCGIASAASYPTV

By inhibition is commonly meant the drop in the measured response relative to a control, in per cent. Read a low inhibition as a response near the control. For `CC[C@H](NC(=O)[C@H](CC(C)C)NC(=O)OCc1ccccc1)C(=O)COn1nnc2ccccc21` [Example 5, 1-[N-[N-Benzyloxycarbonyl-L-leucyl]-3S-3-amino-2-oxopentyloxy] benzotriazole], the kinact/KI in assay [1] is 3e+06 M⁻¹ s⁻¹. The compound also displayed an inhibition at 10 µM in assay [2] of 34%.
The corresponding values for `CC(C)C[C@H](NC(=O)OCc1ccccc1)C(=O)N[C@@H](Cc1ccccc1)C(=O)COn1nnc2ccccc2c1=O` [Example 28, 1-[N-[N-Benzyloxycarbonyl-L-leucyl]-3S-4-phenyl-3-amino-2-oxobutyloxy]-3-benzotriazin-4-one] are 70000 M⁻¹ s⁻¹ and 82%.
In the same order, the values of `CC(C)C[C@H](NC(=O)OCc1ccccc1)C(=O)N[C@@H](Cc1ccccc1)C(=O)COn1nnc2cccnc21` [Example 6, 3-[N-[N-Benzyloxycarbonyl-L-leucyl]-3S-4-phenyl-3-amino-2-oxobutyloxy]-3H-triazolo[4,5-b]pyridine] are 40000 M⁻¹ s⁻¹ and 81%.
Consider `CC(C)C[C@H](NC(=O)OCc1ccccc1)C(=O)N[C@@H](Cc1ccccc1)C(=O)COn1nnc2ccccc21` [Example 3, 1-[N-[N-Benzyloxycarbonyl-L-leucyl]-3S-4-phenyl-3-amino-2-oxobutyloxy]benzotriazole], for which the kinact/KI in assay [1] was 100000 M⁻¹ s⁻¹. For the same compound, testing at 10 µM in assay [2] gave an inhibition of 86%.
